Test results reported in patent publication US20240208962A1, “MICROBIOCIDAL QUINOLINE/QUINOXALINE BENZOTHIAZINE DERIVATIVES” (SYNGENTA CROP PROTECTION AG, priority 2021, published 2024).

Assays:
[1] = tested on: Colletotrichum lagenarium; assay: Comparative: Colletotrichum lagenarium / cucumber / preventative (Anthracnose); format: in vivo; conditions: rate of application 200 ppm, Colletotrichum lagenarium on cucumber cv. Wisconsin, emulsifiable concentrate, 6-8 days after application
Venturia inaequalis = assay: Comparative: Venturia inaequalis / apple / preventative (Scab on apple); format: in vivo; conditions: rate of application 200 ppm, Venturia inaequalis on apple seedlings, emulsifiable concentrate, 11-13 days after application
Botrytis cinerea = assay: Comparative: Botrytis cinerea / tomato / preventative; format: in vivo; conditions: rate of application 200 ppm, Botrytis cinerea on tomato, emulsifiable concentrate, 5-6 days after application
[2] = tested on: Mycosphaerella graminicola (Septoria tritici); assay: Comparative: Mycosphaerella graminicola (Septoria tritici) on wheat / preventative, emulsifiable concentrate; format: in vivo; conditions: rate of application 60 ppm, Mycosphaerella graminicola on wheat cv. Riband, 16 to 19 days after application
[3] = tested on: Mycosphaerella graminicola (Septoria tritici); assay: Mycosphaerella graminicola (Septoria tritici) on wheat / preventative; format: in vivo; conditions: Zymoseptoria tritici, wheat plants cv. Riband, preventative spray, 16 to 19 days after application, read-out: control of Mycosphaerella graminicola compared to untreated control
[4] = tested on: Glomerella lagenarium (Colletotrichum lagenarium); assay: Glomerella lagenarium (Colletotrichum lagenarium) / liquid culture (Anthracnose); format: cell-based; conditions: Colletotrichum orbiculare, liquid culture PDB, 3-4 days after application, read-out: control of Glomerella lagenarium (inhibition of growth, photometric)
[5] = tested on: Botryotinia fuckeliana (Botrytis cinerea); assay: Botryotinia fuckeliana (Botrytis cinerea) / liquid culture (Gray mould); format: cell-based; conditions: liquid culture Vogels broth, 3-4 days after application, read-out: control of Botryotinia fuckeliana (inhibition of growth, photometric)
[6] = tested on: Monographella nivalis (Microdochium nivale); assay: Monographella nivalis (Microdochium nivale) / liquid culture (foot rot cereals); format: cell-based; conditions: liquid culture PDB, 4 to 5 days after application, read-out: control of Monographella nivalis (inhibition of growth, photometric)
Fusarium culmorum = assay: microbe, parasite or virus in culture; format: cell-based; conditions: read-out: control of Fusarium culmorum (inhibition of growth, photometric)

With `CC1(C)N=C(c2cnc3c(F)cccc3c2)c2cccc(F)c2S1` [Comparative compound A, reference compound] the “Efficacy (% control)” value [1] was 80 % control, the “Efficacy (% control)” value (Venturia inaequalis) was 100 % control and the “Efficacy (% control)” value (Botrytis cinerea) was 95 % control. For the same compound, the “Efficacy (% control)” value [2] was 11 % control.
In the case of `Cc1cccc2c1SC(C)(C)N=C2c1cnc2c(F)c(F)ccc2c1` [Compound E.01, 4-(7,8-difluoro-3-quinolyl)-2,2,8-trimethyl-1,3-benzothiazine], the pest or weed control at 60 ppm [3] is reported as ≥ 80%, the inhibition at 20 ppm [4] is reported as ≥ 80% and the “Efficacy (% control)” value [1] is reported as 97 % control. For the same compound, the melting point was 137 to 139 °C, the “Efficacy (% control)” value (Venturia inaequalis) was 97 % control and the “Efficacy (% control)” value (Botrytis cinerea) was 97 % control. The inhibition at 20 ppm [5] was ≥ 80% and the “Efficacy (% control)” value [2] was 72 % control.
In the case of `CC1(C)N=C(c2cnc3c(F)c(F)ccc3c2)c2cccc(Cl)c2S1` [Compound E.02, 8-chloro-4-(7,8-difluoro-3-quinolyl)-2,2-dimethyl-1,3-benzothiazine], the pest or weed control at 60 ppm [3] is reported as ≥ 80%, the inhibition at 20 ppm [4] is reported as ≥ 80% and the “Efficacy (% control)” value [1] is reported as 97 % control. For the same compound, the melting point was 134 to 136 °C, the “Efficacy (% control)” value (Venturia inaequalis) was 97 % control and the “Efficacy (% control)” value (Botrytis cinerea) was 95 % control. The inhibition at 20 ppm [5] was ≥ 80% and the “Efficacy (% control)” value [2] was 99 % control.
With `Cc1ccc2c(c1F)SC(C)(C)N=C2c1cnc2c(F)cccc2c1` [Compound E.08, 8-fluoro-4-(8-fluoro-3-quinolyl)-2,2,7-trimethyl-1,3-benzothiazine] the pest or weed control at 60 ppm [3] was ≥ 80%, the inhibition at 20 ppm [6] was ≥ 80% and the inhibition at 20 ppm (Fusarium culmorum) was ≥ 80%. For the same compound, the inhibition at 20 ppm [4] was ≥ 80%, the melting point was 159 to 161 °C and the “Efficacy (% control)” value (Venturia inaequalis) was 80 % control. The “Efficacy (% control)” value (Botrytis cinerea) was 97 % control, the inhibition at 20 ppm [5] was ≥ 80% and the “Efficacy (% control)” value [2] was 89 % control.
For `CC1(C)N=C(c2cnc3c(F)cccc3c2)c2cccc(Cl)c2S1` [Compound E.12, 8-chloro-4-(8-fluoro-3-quinolyl)-2,2-dimethyl-1,3-benzothiazine], the pest or weed control at 60 ppm [3] was ≥ 80%, the inhibition at 20 ppm [6] was ≥ 80% and the inhibition at 20 ppm (Fusarium culmorum) was ≥ 80%. For the same compound, the inhibition at 20 ppm [4] was ≥ 80%, the “Efficacy (% control)” value [1] was 100 % control and the melting point was 158 to 160 °C. The “Efficacy (% control)” value (Venturia inaequalis) was 100 % control, the “Efficacy (% control)” value (Botrytis cinerea) was 95 % control and the inhibition at 20 ppm [5] was ≥ 80%. The “Efficacy (% control)” value [2] was 92 % control.
For `Cc1ccc2c(c1Cl)SC(C)(C)N=C2c1cnc2c(F)cccc2c1` [Compound E.13, 8-chloro-4-(8-fluoro-3-quinolyl)-2,2,7-trimethyl-1,3-benzothiazine], the pest or weed control at 60 ppm [3] was ≥ 80%, the inhibition at 20 ppm [6] was ≥ 80% and the inhibition at 20 ppm (Fusarium culmorum) was ≥ 80%. For the same compound, the inhibition at 20 ppm [4] was ≥ 80%, the inhibition at 20 ppm [5] was ≥ 80% and the “Efficacy (% control)” value [2] was 96 % control.
For `Cc1cccc2c1SC(C)(C)N=C2c1cnc2c(F)cccc2c1` [Compound E.14, 4-(8-fluoro-3-quinolyl)-2,2,8-trimethyl-1,3-benzothiazine], the pest or weed control at 60 ppm [3] was ≥ 80%, the inhibition at 20 ppm [6] was ≥ 80% and the inhibition at 20 ppm (Fusarium culmorum) was ≥ 80%. The inhibition at 20 ppm [4] was ≥ 80%, the “Efficacy (% control)” value [1] was 97 % control and the “Efficacy (% control)” value (Venturia inaequalis) was 100 % control. For the same compound, the “Efficacy (% control)” value (Botrytis cinerea) was 93 % control, the inhibition at 20 ppm [5] was ≥ 80% and the “Efficacy (% control)” value [2] was 83 % control.
With `CC1(C)N=C(c2cnc3c(F)cccc3c2)c2ccc(F)c(F)c2S1` [E.03, 7,8-difluoro-4-(8-fluoro-3-quinolyl)-2,2-dimethyl-1,3-benzothiazine] the pest or weed control at 60 ppm [3] was ≥ 80%, the inhibition at 20 ppm [6] was ≥ 80% and the inhibition at 20 ppm (Fusarium culmorum) was ≥ 80%. The inhibition at 20 ppm [4] was ≥ 80% and the inhibition at 20 ppm [5] was ≥ 80%.
In the case of `CSc1cccc2c1SC(C)(C)N=C2c1cnc2c(F)cccc2c1` [E.04, 4-(8-fluoro-3-quinolyl)-2,2-dimethyl-8-methylsulfanyl-1,3-benzothiazine], the inhibition at 20 ppm [6] is reported as ≥ 80%, the inhibition at 20 ppm (Fusarium culmorum) is reported as ≥ 80% and the inhibition at 20 ppm [4] is reported as ≥ 80%. For the same compound, the inhibition at 20 ppm [5] was ≥ 80%.
For `CC1(C)N=C(c2cnc3c(F)cccc3c2)c2ccc(Cl)c(Cl)c2S1` [E.05, 7,8-dichloro-4-(8-fluoro-3-quinolyl)-2,2-dimethyl-1,3-benzothiazine], the pest or weed control at 60 ppm [3] was ≥ 80%, the inhibition at 20 ppm [6] was ≥ 80% and the inhibition at 20 ppm (Fusarium culmorum) was ≥ 80%. For the same compound, the inhibition at 20 ppm [4] was ≥ 80% and the inhibition at 20 ppm [5] was ≥ 80%.
In the case of `Cc1cccc2c1S[C@](C)(C(F)F)N=C2c1cnc2c(F)cccc2c1` [E.06, (2R)-2-(difluoromethyl)-4-(8-fluoro-3-quinolyl)-2,8-dimethyl-1,3-benzothiazine], the inhibition at 20 ppm [6] is reported as ≥ 80%, the inhibition at 20 ppm (Fusarium culmorum) is reported as ≥ 80% and the inhibition at 20 ppm [4] is reported as ≥ 80%. The inhibition at 20 ppm [5] was ≥ 80%.
For `CC1(C(F)F)N=C(c2cnc3c(F)cccc3c2)c2cccc(Cl)c2S1` (stereo not shown) [E.09, 8-chloro-2-(difluoromethyl)-4-(8-fluoro-3-quinolyl)-2-methyl-1,3-benzothiazine], the inhibition at 20 ppm [6] was ≥ 80%, the inhibition at 20 ppm (Fusarium culmorum) was ≥ 80% and the inhibition at 20 ppm [4] was ≥ 80%. The inhibition at 20 ppm [5] was ≥ 80%.
For `Cc1ccc2c(c1C#N)SC(C)(C)N=C2c1cnc2c(F)cccc2c1` [E.10, 4-(8-fluoro-3-quinolyl)-2,2,7-trimethyl-1,3-benzothiazine-8-carbonitrile], the inhibition at 20 ppm (Fusarium culmorum) was ≥ 80% and the inhibition at 20 ppm [5] was ≥ 80%.
For `Cc1ccc2c(c1C)SC(C)(C)N=C2c1cnc2c(F)cccc2c1` [E.11, 4-(8-fluoro-3-quinolyl)-2,2,7,8-tetramethyl-1,3-benzothiazine], the pest or weed control at 60 ppm [3] was ≥ 80%, the inhibition at 20 ppm [6] was ≥ 80% and the inhibition at 20 ppm (Fusarium culmorum) was ≥ 80%. The inhibition at 20 ppm [4] was ≥ 80% and the inhibition at 20 ppm [5] was ≥ 80%.
For `Cc1cccc2c1SC(C)(C(F)F)N=C2c1cnc2c(F)cccc2c1` (stereo not shown) [E.15, 2-(difluoromethyl)-4-(8-fluoro-3-quinolyl)-2,8-dimethyl-1,3-benzothiazine], the inhibition at 20 ppm [6] was ≥ 80%, the inhibition at 20 ppm (Fusarium culmorum) was ≥ 80% and the inhibition at 20 ppm [4] was ≥ 80%. The inhibition at 20 ppm [5] was ≥ 80%.
In the case of `Cc1ccc2c(c1F)SC(C)(C)N=C2c1cnc2c(F)c(F)ccc2c1` [E.16, 4-(7,8-difluoro-3-quinolyl)-8-fluoro-2,2,7-trimethyl-1,3-benzothiazine], the pest or weed control at 60 ppm [3] is reported as ≥ 80%, the inhibition at 20 ppm [6] is reported as ≥ 80% and the inhibition at 20 ppm (Fusarium culmorum) is reported as ≥ 80%. For the same compound, the inhibition at 20 ppm [5] was ≥ 80%.
For `CC1(C)N=C(c2cnc3c(F)cccc3n2)c2cccc(Cl)c2S1` [E.17, 8-chloro-4-(5-fluoroquinoxalin-2-yl)-2,2-dimethyl-1,3-benzothiazine], the inhibition at 20 ppm [6] was ≥ 80%, the inhibition at 20 ppm (Fusarium culmorum) was ≥ 80% and the inhibition at 20 ppm [4] was ≥ 80%. For the same compound, the inhibition at 20 ppm [5] was ≥ 80%.
In the case of `CC1(Cc2ccc(Cl)nc2)N=C(c2cnc3c(F)c(F)ccc3c2)c2cccc(Cl)c2S1` (stereo not shown) [E.18, 8-chloro-2-[(6-chloro-3-pyridyl)methyl]-4-(7,8-difluoro-3-quinolyl)-2-methyl-1,3-benzothiazine], the inhibition at 20 ppm [6] is reported as ≥ 80%, the inhibition at 20 ppm [4] is reported as ≥ 80% and the inhibition at 20 ppm [5] is reported as ≥ 80%.
For `CC1(Cc2ccc(Cl)nc2)N=C(c2cnc3c(F)cccc3c2)c2cccc(Cl)c2S1` (stereo not shown) [E.19, 8-chloro-2-[(6-chloro-3-pyridyl)methyl]-4-(8-fluoro-3-quinolyl)-2-methyl-1,3-benzothiazine], the inhibition at 20 ppm [6] was ≥ 80%, the inhibition at 20 ppm (Fusarium culmorum) was ≥ 80% and the inhibition at 20 ppm [4] was ≥ 80%. The inhibition at 20 ppm [5] was ≥ 80%.
In the case of `Cc1nc2c(F)cccc2cc1C1=NC(C)(C)Sc2c(Cl)cccc21` [E.20, 8-chloro-4-(8-fluoro-2-methyl-3-quinolyl)-2,2-dimethyl-1,3-benzothiazine], the inhibition at 20 ppm [6] is reported as ≥ 80%, the inhibition at 20 ppm [4] is reported as ≥ 80% and the melting point is reported as 134 to 136 °C. The inhibition at 20 ppm [5] was ≥ 80%.
In the case of `Cc1c(Cl)ccc2c1SC(C)(C)N=C2c1cnc2c(F)c(F)ccc2c1` [E.21, 7-chloro-4-(7,8-difluoro-3-quinolyl)-2,2,8-trimethyl-1,3-benzothiazine], the inhibition at 20 ppm [6] is reported as ≥ 80%, the inhibition at 20 ppm (Fusarium culmorum) is reported as ≥ 80% and the melting point is reported as 161 to 163 °C. The inhibition at 20 ppm [5] was ≥ 80%.
For `Cc1c(C#N)ccc2c1SC(C)(C)N=C2c1cnc2c(F)c(F)ccc2c1` [E.22, 4-(7,8-difluoro-3-quinolyl)-2,2,8-trimethyl-1,3-benzothiazine-7-carbonitrile], the melting point was 216 to 218 °C and the inhibition at 20 ppm [5] was ≥ 80%.
With `Cc1c(C#N)ccc2c1SC(C)(C)N=C2c1cnc2c(F)cccc2c1` [E.23, 4-(8-fluoro-3-quinolyl)-2,2,8-trimethyl-1,3-benzothiazine-7-carbonitrile] the inhibition at 20 ppm [6] was ≥ 80%, the inhibition at 20 ppm (Fusarium culmorum) was ≥ 80% and the melting point was 88 to 90 °C. For the same compound, the inhibition at 20 ppm [5] was ≥ 80%.
For `COc1c(Cl)ccc2c1SC(C)(C)N=C2c1cnc2c(F)cccc2c1` [E.24, 7-chloro-4-(8-fluoro-3-quinolyl)-8-methoxy-2,2-dimethyl-1,3-benzothiazine], the inhibition at 20 ppm [6] was ≥ 80%, the inhibition at 20 ppm (Fusarium culmorum) was ≥ 80% and the inhibition at 20 ppm [5] was ≥ 80%.
In the case of `Cc1c(Cl)ccc2c1SC(C)(C)N=C2c1cnc2c(F)cccc2c1` [E.25, 7-chloro-4-(8-fluoro-3-quinolyl)-2,2,8-trimethyl-1,3-benzothiazine], the pest or weed control at 60 ppm [3] is reported as ≥ 80%, the inhibition at 20 ppm (Fusarium culmorum) is reported as ≥ 80% and the inhibition at 20 ppm [4] is reported as ≥ 80%. The melting point was 68 to 70 °C and the inhibition at 20 ppm [5] was ≥ 80%.
